From patent US20260200943A1, “COMPOUNDS FOR TREATING CANCER” (Genesis Therapeutics, Inc., priority 2022, published 2026) come the findings set out here.

Structures are written as SMILES. Bounds are passed on as bounds.

The assay deals with T1, CDK6/CyclinD3 (Homo sapiens, UniProt Q00534).
T1 construct: Wild-type, full length CDK6 in complex with wildtype, full length CyclinD3: Carna Cat #04-107; purchased Carna 04-107
Nature of the assay: CDK6/CyclinD3 ChEF Assay (AQT, Table C). It is filed as biochemical. Particulars: read-out: CDK6/CCND3 AQT Ki: Average Ki. The method, then:
16 nL of 1000× compound in 100% DMSO is added to a 384-well low volume, black assay plate. 12 μL of 1.3×CDK6/CyclinD3 (Wild-type, full length CDK6 in complex with wildtype, full length CyclinD3: Carna Cat #04-107) diluted in assay buffer (54 mM Hepes, 0.012% Brij-35, 10 mM MgCl2, 0.55 mM EGTA, 1% Glycerol, 0.02% BSA, and 1.2 mM DTT) is added to the plates on top of the compound and pre-incubated for 30 minutes at room temperature. Following the incubation, 4 uL of 4×Sox-chromophore (CSox) labeled peptide substrate (AQT0258, AssayQuant) & ATP diluted in assay buffer is added to the plate to initiate the reaction. The assay is incubated at room temperature for 300 min after initiation. The CSox peptide substrate is phosphorylated by CDK6/D3 upon ATP hydrolysis.
The fluorescent intensity measurement of the assay plate is read on a microplate reader once the assay is initiated and again at the completion of the assay. Phosphorylation of the CSox-based peptide substrate sensor results in an immediate increase in fluorescence. These raw fluorescence intensity values are normalized to calculate percent inhibition, which are fit to a four-parameter logistic curve and IC50 values are calculated. IC50 values are converted to Ki using substrate, KM^app values, and the Cheng-Prusoff equation.

T1 sequence (Q00534 whole entry): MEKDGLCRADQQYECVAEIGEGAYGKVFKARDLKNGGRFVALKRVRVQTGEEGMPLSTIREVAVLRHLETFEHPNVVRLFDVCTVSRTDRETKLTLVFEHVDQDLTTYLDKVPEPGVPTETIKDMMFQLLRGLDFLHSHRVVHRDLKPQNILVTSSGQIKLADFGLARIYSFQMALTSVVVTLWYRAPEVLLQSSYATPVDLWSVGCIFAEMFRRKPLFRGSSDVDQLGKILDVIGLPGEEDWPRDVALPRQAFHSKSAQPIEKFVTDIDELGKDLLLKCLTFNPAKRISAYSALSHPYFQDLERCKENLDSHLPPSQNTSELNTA
T1 sequence (P30281 whole entry partner): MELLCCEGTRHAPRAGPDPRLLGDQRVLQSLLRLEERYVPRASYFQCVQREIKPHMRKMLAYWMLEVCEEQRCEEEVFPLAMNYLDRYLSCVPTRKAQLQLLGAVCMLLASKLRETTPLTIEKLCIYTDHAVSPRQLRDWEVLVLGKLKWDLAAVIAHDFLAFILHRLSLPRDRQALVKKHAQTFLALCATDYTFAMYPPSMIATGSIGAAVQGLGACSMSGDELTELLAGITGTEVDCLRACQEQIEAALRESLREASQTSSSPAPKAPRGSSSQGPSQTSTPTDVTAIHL

For `NS(=O)(=O)c1ccc2cc1OCCCCCNC(=O)O[C@@H]1CC[C@@H](C1)c1cnc(nc1)N2` (stereo in doubt) [Compound 105, rel-(2S,5R)-7-oxo-6,14-dioxa-8,20,22,25-tetraazatetracyclo[19.2.2.1^{2,5}.1^{15,19}]heptacosa-1(23),15,17,19(26),21,24-hexaene-16-sulfonamide], the Ki is at least 100 nM.

On to `O=C1NCCCCCCNS(=O)(=O)c2ccc(c(F)c2)Nc2cc([nH]n2)[C@H]2CC[C@H](C2)O1` [Compound 91, (1^1S,1^3R,Z)-4^2-fluoro-2^1H-15-oxa-5-thia-3,6,13-triaza-2(5,3)-pyrazola-4(1,4)-benzena-1(1,3)-cyclopentanacyclopentadecaphan-14-one 5,5-dioxide], for which the Ki was at least 100 nM.
